Columns and labels:
[1] = system: NTUB1 cells (human bladder cancer cell line); assay: MTT cytotoxicity assay against NTUB1 cells; type: cell-based; details: for IC50 / % of viability at the highest concentration: NTUB1 cells; for IC50: MTT, mean±SD (n=5); for cytotoxic activity against NTUB1 cells, in words: comparison with the parent compound, from Table 1; for % of viability at the highest concentration: given when 50% inhibition not reached at the highest concentration (30 μM)
Procedure: In the present embodiment, cell culture and MTT assay is used for cell viability/proliferation. NTUB1, a human bladder cancer cell line, is established from a high-grade bladder cancer. […] The cells are cultured at 37° C. in a humidified atmosphere containing 5% CO2. […] Briefly, the cells are plated at a density of 1800 cells/well in 96-well plates and incubated at 37° C. overnight before drug exposure. Cells are then cultured in the presence of graded concentrations of the test compound with or without various concentrations of cisplatin (Pharmacia & Upjohn, Milan, Italy) at 37° C. for 72 h. At the end of the culture period, 50 μL of MTT (2 mg/mL in PBS) is added to each well and allowed to react for 3 h. Following centrifugation of plates at 1000 g for 10 min, media are removed and 150 μL DMSO are added to each well. The proportions of surviving cells are determined by absorbance spectrometry at 540 nm using […]) microplate reader. The cell viability is expressed as a percentage to the viable cells of control culture condition. The IC50s of each group are calculated by the […] analysis and presented as mean±standard deviation (SD). […] In Table 1, data are presented as mean±SD (n=5). […] The control cells are treated with culture medium containing 0.1% DMSO. Cisplatin is used as a positive control.

NTUB1 cells [2] = assay: Intracellular ROS by DCFH-DA flow cytometry in NTUB1 cells; type: cell-based, human
Procedure: As to the quantitative analysis of intracellular ROS, the flow cytometry analysis is also adopted. Cells are plated and treated as above-mentioned conditions. Ten-micromolar dichlorofluorescein diacetate (DCFH-DA; Molecular Probes, Eugene, Oreg.) is added to the treated cells 30 min prior harvest. The cells are collected by trypsinization and washed with PBS. The green fluorescence of intracellular DCF (2′,7′-dichlorofluorescein) is then analyzed immediately by FACScan flow cytometer with a 525-nm band pass filter (Becton Dickinson).

accumulation of NO2− = assay: Experiment A: accumulation of NO2− (Griess reaction); type: cell-based, rat; details: for percentage of inhibition at 30 μM, A NO2−: given when 50% inhibition not reached; for IC50: inhibition of accumulation of NO2−
Procedure: (§1) This example illustrates the anti-inflammatory activities of compounds 5, 7-11, 20 and 21. The anti-inflammatory activities of compounds 5, 7-11, 20 and 21 are studied in vitro for their inhibitory effects on chemical mediators released from neutrophils, mast cells or macrophages of rat.
(§2) Please refer to Table 2, which illustrates the inhibitory effects of compounds 5, 7-11, 20 and 21 on the accumulation of NO2^− (Experiment A), superoxide anion formation (n mol/10^6 cells/30 min) from rat neutrophils stimulated with PMA (Experiment B), and the release of β-glucuronidase from rat peritoneal mast cells stimulated with compound 48/80 (Experiment C). In Table 2, when 50% inhibition could not be reached at the highest concentration, the percentage of inhibition at 30 μM is given.
In the Experiment A, Nitric oxide (NO) in the cell medium is determined by the Griess reaction, and N-(3-aminomethyl)benzylamide (1400 W) is used as a positive control.

NTUB1 cells [3] = assay: Cell cycle progression by FACS in propidium iodide-stained NTUB1 cells; type: cell-based, human
Procedure: These cells are harvested by trypsinization, washed with 1×PBS, and fixed in ice-cold MeOH at −20° C. After overnight incubation, the cells are washed with PBS and incubated with 50 μg/mL propidium iodide (Sigma, Co) and 50 μg/mL RNase A (Sigma, Co) in PBS at room temperature for 30 min. The fractions of cells in each phase of cell cycle are analyzed using FACScan flow cytometer and Cell Quest software (Becton Dickinson).

PC3 cells = assay: MTT cytotoxicity assay against PC3 cells; type: cell-based, human; details: 72 h
Description: (§3) The data shown in FIGS. 4(A) to 4(C) represent mean±SD (n=3) for one experiment performed in triplicate. The symbols, “*” represents p<0.05, “**” represents p<0.01, and “***” represents p<0.001, compared to the control value, respectively.

A549 cells = assay: MTT cytotoxicity assay against A549 cells; type: cell-based, human; details: 72 h
Description: as §3

[4] = system: rat neutrophils stimulated with PMA; assay: Experiment B: superoxide anion formation from rat neutrophils stimulated with PMA; type: cell-based; details: PMA (3 nM)
Procedure: This example illustrates the anti-inflammatory activities of compounds 5, 7-11, 20 and 21. The anti-inflammatory activities of compounds 5, 7-11, 20 and 21 are studied in vitro for their inhibitory effects on chemical mediators released from neutrophils, mast cells or macrophages of rat. […] In Table 2, when 50% inhibition could not be reached at the highest concentration, the percentage of inhibition at 30 μM is given. In the Experiment B, superoxide anion generation is measured in terms of superoxide dismutase-inhibitable cytochrome c reduction. Neutrophils isolated from the peripheral blood of the rats are washed and suspended in Hanks' balanced salt solution (HBSS). Neutrophil suspension is preincubated with DMSO or drugs, and then superoxide dismutase (SOD) or HBSS is added into the blank and test wells, respectively. The final volume of DMSO in the reaction mixture is ≦0.5%. After addition of cytochrome c, reaction is initiated by challenge with PMA (3 nM). Thirty minutes later, the reaction is terminated by centrifugation and the absorbance changes of supernatant are monitored at 550 nm in a microplate reader. The superoxide anion generation is measured in terms of superoxide dismutase-inhibitable cytochrome c reduction. Trifluoperazine is used as a positive control for the Experiment B.

[5] = system: rat peritoneal mast cells stimulated with compound 48/80; assay: Experiment C: release of β-glucuronidase from rat peritoneal mast cells stimulated with compound 48/80; type: cell-based; details: Mast cell; rat peritoneal mast cells, compound 48/80
Procedure: as §1, §2
In the Experiment C, Heparinized Tyrode's solution is injected into the peritoneal cavity of exsanguinated rat (Sprague-Dawley, 250-300 g). After abdominal massage, cells in the peritoneal fluid are harvested and then separated in 38% bovine serum albumin (BSA) in glucose-free Tyrode's solution. […] Fifteen min after the addition of compound 48/80 ([…]), β-glucuronidase (phenolphthalein-β-glucuronide as substrate, 550 nm) in the supernatant is determined. The total content of β-glucuronidase is measured after treatment of the cell suspension with Triton X-100, and the percentage release is calculated. […]

[6] = 50 μM, compared across the three cell lines

C[C@H]1[C@H](C)CC[C@]2(C(=O)O)CC[C@]3(C)C(=CC[C@@H]4[C@@]5(C)CC[C@H](O)C(C)(C)[C@@H]5CC[C@]43C)[C@H]12 [Compound 1, ursolic acid]
IC50 ([1]; Homo sapiens, 72 h): 29.4 ± 1.9 µM

COC(=O)[C@]12CC[C@@H](C)[C@H](C)[C@H]1C1=CC[C@@H]3[C@@]4(C)CC[C@H](O)C(C)(C)[C@@H]4CC[C@@]3(C)[C@]1(C)CC2 [Compound 2]
IC50 ([1]; 72 h): 37.1 µM | cytotoxic activity against NTUB1 cells, in words [1]: decreases the cytotoxic activity

CCOC(=O)C12CCC(C)C(C)C1C1=CCC3C4(C)CCC(O)C(C)(C)C4CCC3(C)C1(C)CC2 (stereo not drawn) [Compound 3]
IC50 ([1]; 72 h): 13.5 µM

CC(C)OC(=O)[C@]12CC[C@@H](C)[C@H](C)[C@H]1C1=CC[C@@H]3[C@@]4(C)CC[C@H](O)C(C)(C)[C@@H]4CC[C@@]3(C)[C@]1(C)CC2 [Compound 5, Isopropyl 3β-hydroxyurs-12-en-28-oate]
intracellular ROS (NTUB1 cells [2]; 40 μM, 24 h, effect inhibited by NAC): significant increase in intracellular ROS | intracellular ROS (NTUB1 cells [2]; 20 and 40 μM, 48 h, effect not inhibited by NAC): significant increase in intracellular ROS | percentage of inhibition at 30 μM, A NO2− (accumulation of NO2−): 45.3 ± 7.0% | cytotoxic effect at 50 μM, NTUB1 cells ([1]; 50 μM, 72 h, compared across the three cell lines): same cytotoxic effect | IC50 ([1]; 72 h): 7.97 ± 0.48 µM | effect on cell cycle progression (NTUB1 cells [3]; 20-40 μM, 48 h): arrests G2/M phase before accumulation of cells in sub-G1 phase | effect on cell cycle progression (NTUB1 cells [3]; 20 and 40 μM (20-40 μM), 24 h): induces G1 phase arrest in a dose-dependent manner | apoptotic cell death (NTUB1 cells [3]; 20 and 40 μM, 24 h): increase in the apoptotic cell death | cytotoxic effect at 50 μM, PC3 cells (PC3 cells; [6]): same cytotoxic effect | cytotoxic effect against PC3 cells compared with NTUB1 cells (PC3 cells; MTT, FIG. 4): do not exhibit stronger cytotoxic effects | cytotoxic effect at 50 μM, A549 cells (A549 cells; [6]): same cytotoxic effect | cytotoxic effect against A549 cells compared with NTUB1 cells (A549 cells; MTT, FIG. 4): do not exhibit stronger cytotoxic effects

CCCCCOC(=O)[C@]12CC[C@@H](C)[C@H](C)[C@H]1C1=CC[C@@H]3[C@@]4(C)CC[C@H](O)C(C)(C)[C@@H]4CC[C@@]3(C)[C@]1(C)CC2 [Compound 7, Pentyl 3β-hydroxyurs-12-en-28-oate]
percentage of inhibition at 30 μM, A NO2− (accumulation of NO2−): 29.8 ± 3.3% | IC50 ([1]; 72 h): 27.8 ± 1.63 µM | IC50 [4]: 10.8 ± 2.2 µM

CCCCCCOC(=O)[C@]12CC[C@@H](C)[C@H](C)[C@H]1C1=CC[C@@H]3[C@@]4(C)CC[C@H](O)C(C)(C)[C@@H]4CC[C@@]3(C)[C@]1(C)CC2 [Compound 8, Hexyl 3β-hydroxyurs-12-en-28-oate]
IC50 ([1]; 72 h): 26.2 ± 2.51 µM | IC50 [4]: 11.5 ± 0.9 µM

CC(C)=CCOC(=O)[C@]12CC[C@@H](C)[C@H](C)[C@H]1C1=CC[C@@H]3[C@@]4(C)CC[C@H](O)C(C)(C)[C@@H]4CC[C@@]3(C)[C@]1(C)CC2 [Compound 9, 3′-Methyl-2′-butenyl 3β-hydroxyurs-12-en-28-oate]
percentage of inhibition at 30 μM, A NO2− (accumulation of NO2−): 45.2 ± 5.9% | IC50 ([1]; 72 h): 10.9 ± 2.01 µM | IC50 [4]: 6.1 ± 1.9 µM

C[C@H]1[C@H](C)CC[C@]2(C(=O)OCCO)CC[C@]3(C)C(=CC[C@@H]4[C@@]5(C)CC[C@H](O)C(C)(C)[C@@H]5CC[C@]43C)[C@H]12 [Compound 10, 2′-Hydroxyethyl 3β-hydroxyurs-12-en-28-oate]
percentage of inhibition at 30 μM, A NO2− (accumulation of NO2−): 33.1 ± 7.2% | IC50 ([1]; 72 h): 19.5 µM | cytotoxic activity against NTUB1 cells, in words [1]: attenuate the cytotoxicity

C[C@H]1[C@H](C)CC[C@]2(C(=O)OCC(=O)OC(C)(C)C)CC[C@]3(C)C(=CC[C@@H]4[C@@]5(C)CC[C@H](O)C(C)(C)[C@@H]5CC[C@]43C)[C@H]12 [Compound 11, Tert-Butoxycarbonylmethyl 3β-hydroxyurs-12-en-28-oate]
IC50 (accumulation of NO2−): 21.7 ± 6.5 µM | IC50 ([1]; 72 h): > 30 µM | % of viability at the highest concentration [1]: 64.85%

CC1CCC2(C(=O)O)CCC3(C)C(=CCC4C5(C)CCC(=O)C(C)(C)C5CCC43C)C2C1C (stereo not drawn) [Compound 18]
IC50 ([1]; 72 h): 21.4 ± 15.5 µM | cytotoxic activity against NTUB1 cells, in words [1]: increases cytotoxicities

COC(=O)C12CCC(C)C(C)C1C1=CCC3C4(C)CCC(=O)C(C)(C)C4CCC3(C)C1(C)CC2 (stereo not drawn) [Compound 19]
IC50 ([1]; 72 h): 29.6 ± 4.65 µM

C[C@H]1[C@H](C)CC[C@]2(C(=O)O)CC[C@]3(C)C(=CC[C@@H]4[C@@]5(C)CCC(=O)OC(C)(C)[C@@H]5CC[C@]43C)[C@H]12 [Compound 20, 4-Hydroxy-3,4-seco-ursan-12-en-28-oic acid 3,4 lactone]
percentage of inhibition at 30 μM, A NO2− (accumulation of NO2−): 41.0 ± 9.6% | IC50 ([1]; 72 h): > 30 µM | % of viability at the highest concentration [1]: 63.91% | cytotoxic activity against NTUB1 cells, in words [1]: weakens cytotoxic activities

C[C@H]1[C@H](C)CC[C@]2(C(=O)O)CC[C@]3(C)C(=CC[C@@H]4[C@@](C)(CCC(=O)O)[C@H](C(C)(C)O)CC[C@]43C)[C@H]12 [Compound 22, 3,4-seco-Ursan-4-hydroxy-12-en-3,28-dioic acid]
IC50 ([1]; 72 h): > 30 µM | % of viability at the highest concentration [1]: 56.04% | cytotoxic activity against NTUB1 cells, in words [1]: weakens cytotoxic activities

N.N.[Cl][Pt][Cl] [cisplatin, reference compound]
intracellular ROS (NTUB1 cells [2]; 10 μM, 24 h, effect inhibited by NAC): significant increase in intracellular ROS | intracellular ROS (NTUB1 cells [2]; 10 μM, 48 h, effect not inhibited by NAC): significant increase in intracellular ROS | IC50 ([1]; 72 h): 3.27 ± 0.1 µM | effect on cell cycle progression (NTUB1 cells [3]; 10 μM, 48 h): S phase arrest | effect on cell cycle progression (NTUB1 cells [3]; 10 and 20 μM, 24 h): dose dependent accumulation of cells in the G1 phase with a concomitant increase in the population of sub-G1 phase

CCN(CC)CCCC(C)Nc1c2ccc(Cl)cc2nc2ccc(OC)cc12 (stereo not drawn) [mepacrine, reference compound]
IC50 [5]: 12.4 ± 1.6 µM

CN1CCN(CCCN2c3ccccc3Sc3ccc(C(F)(F)F)cc32)CC1 [trifluoperazine, reference compound]
IC50 ([4]; Neutrophil): 7.3 ± 0.6 µM

N-(3-aminomethyl)benzylamide [1400 W, reference compound]
IC50 (accumulation of NO2−): 5 ± 1.5 µM
